Results on eleven compounds are retold here after patent US11208387B2, “Macrocyclic broad spectrum antibiotics” (Genentech, Inc., priority 2019, dated 2021).

What all share (assay): Serum MIC, broth micro-dilution
Holding throughout (type): cell-based

Experiment [1] relates to Escherichia coli strain ATCC 25922. Particulars: Escherichia coli, read-out: E. coli 25922 Serum MIC. Put shortly: (§1)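 CLSI broth microdilution in 50% cation-adjusted Mueller Hinton II broth plus 50% mouse serum. Inoculum at final OD600 0.0005. Two-fold serial dilutions (10 concentrations) starting at 64, 4, 0.5 or 0.13 μg/mL. Incubated 22 h at 35 °C.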
Experiment [2] deals with Klebsiella pneumoniae ATCC 700603. Particulars: Klebsiella pneumoniae. Put shortly:
as §1

Experiment [3] relates to Pseudomonas aeruginosa PA01. The settings on record: Pseudomonas aeruginosa, read-out: P. aeruginosa 01 Serum MIC. Put shortly:
as §1

Experiment [4] has as its system Acinetobacter baumannii ATCC 17978. The settings on record: Acinetobacter baumannii. Put shortly: as §1
Where [5] appears, read: ATCC25922, 50% v/v mouse serum in Mueller Hinton II cation adjusted Broth, 35° C., 22 hours, Table 4.
Where [6] appears, read: ATCC700603, 50% v/v mouse serum in Mueller Hinton II cation adjusted Broth, 35° C., 22 hours, Table 4, read-out: K pneumoniae 700603 Serum MIC.
Setting [7] is: PA01, 50% v/v mouse serum in Mueller Hinton II cation adjusted Broth, 35° C., 22 hours, Table 4.
[8] abbreviates: ATCC17978, 50% v/v mouse serum in Mueller Hinton II cation adjusted Broth, 35° C., 22 hours, Table 4, read-out: A. baumanii 17978 Serum MIC.
Setting [9] is: ATCC17978, 50% v/v mouse serum in Mueller Hinton II cation adjusted Broth, 35° C., 22 hours, Table 5, read-out: Acinetobacter baumanii 17978 Serum MIC.
Where [10] appears, read: ATCC25922, 50% v/v mouse serum, compounds of Table 1, Table 7.
The mark [11] stands for this setting: ATCC700603, 50% v/v mouse serum, compounds of Table 1, Table 7, read-out: K. pneumoniae 700603 Serum MIC.
The mark [12] stands for this setting: PA01, 50% v/v mouse serum, compounds of Table 1, Table 7.
[13] abbreviates: ATCC17978, 50% v/v mouse serum, compounds of Table 1, Table 7, read-out: A. baumanii 17978 Serum MIC.

Molecules are shown by their SMILES. ≈ marks a conversion by molar mass, not a printed value. Like-named read-outs stand apart in the source and are kept apart here.

In the case of `C[C@@H]1NC(=O)[C@@H](N(C)C(=O)[C@H](CCN)NC(=O)c2c(N)cc(-c3ccc(C(C)(C)C)cc3)nc2Cl)c2cc(OC[C@H](O)CN)c(O)c(c2)-c2cc(ccc2OC[C@H](O)CN)C[C@@H](C(=O)O)NC1=O` [Example 51, (8S,11S,14S)-18-hydroxy-11-methyl-14-[methyl-[(2S)-4-amino-2-[[4-amino-6-(4-tert-butylphenyl)-2-chloro-pyridine-3-carbonyl]amino]-butanoyl]amino]-10,13-dioxo-3,17-bis[(2R)-3-amino-2-hydroxy-propoxy]-9,12-diazatricyclo-[13.3.1.12,6]icosa-1(18),2(20),3,5,15(19), 16-hexaene-8-carboxylic acid], the MIC (usually the least concentration at which growth counts as inhibited) in experiment [1] (setting [5]) stood at 0.19 µM (≈ 0.183 µg/mL); in experiment [2] (setting [6]) it was 0.13 µM (≈ 0.125 µg/mL); in experiment [3] (setting [7]), 8 µM (≈ 7.7 µg/mL); in experiment [4] (setting [8]), 8 µM (≈ 7.7 µg/mL); in experiment [4] (setting [9]), 8 µM (≈ 7.7 µg/mL).
For the compound `Cc1cc(-c2ccc(C(C)(C)C)cc2)nc(C)c1C(=O)N[C@@H](CCN)C(=O)N(C)[C@@H]1C(=O)N[C@@H](C)C(=O)N[C@H](C(=O)O)Cc2ccc(O)c(c2)-c2cc1ccc2OCCN` (racemic) [Example 644], the MIC came to 1.2 µM (≈ 0.986 µg/mL) in experiment [1] (setting [10]), 4.6 µM (≈ 3.78 µg/mL) in experiment [2] (setting [11]), 74 µM (≈ 60.8 µg/mL) in experiment [3] (setting [12]) and 74 µM (≈ 60.8 µg/mL) in experiment [4] (setting [13]).
In the case of `C[C@@H]1NC(=O)[C@@H](N(C)C(=O)[C@H](CNS(N)(=O)=O)NC(=O)c2cnc(-c3ccc(C(C)(C)C)cc3)nc2N)c2cc(OC[C@H](O)CN)c(O)c(c2)-c2cc(ccc2OC[C@H](O)CN)C[C@@H](C(=O)O)NC1=O` [Example 46, (8S,11S,14S)-14-[[(2S)-2-[[4-amino-2-(4-tert-butylphenyl)-pyrimidine-5-carbonyl]amino]-3-(sulfamoylamino)-propanoyl]-methyl-amino]-3,17-bis[(2R)-3-amino-2-hydroxy-propoxy]-18-hydroxy-11-methyl-10,13-dioxo-9,12-diazatricyclo-[13.3.1.12,6]icosa-1(18),2(20),3,5,15(19), 16-hexaene-8-carboxylic acid], the MIC in experiment [1] (setting [5]) stood at 0.5 µM (≈ 0.497 µg/mL); in experiment [2] (setting [6]) it was 0.5 µM (≈ 0.497 µg/mL); in experiment [3] (setting [7]) it was 16 µM (≈ 15.9 µg/mL); in experiment [4] (setting [8]), 8 µM (≈ 7.95 µg/mL); in experiment [4] (setting [9]), 8 µM (≈ 7.95 µg/mL).
As for `Cc1nc(N2CCC(C(C)(C)C)CC2)nc(N)c1C(=O)N[C@@H](CNS(N)(=O)=O)C(=O)N(C)[C@@H]1C(=O)N[C@@H](C)C(=O)N[C@H](C(=O)O)Cc2ccc(OC[C@H](O)CN)c(c2)-c2cc1cc(OC[C@H](O)CN)c2O` [Example 12, (8S,11S,14S)-18-hydroxy-11-methyl-14-[methyl-[(2S)-2-[[4-amino-2-(4-tert-butyl-1-piperidyl)-6-methyl-pyrimidine-5-carbonyl]amino]-3-(sulfamoylamino)-propanoyl]amino]-10,13-dioxo-3,17-bis[(2R)-3-amino-2-hydroxy-propoxy]-9,12-diazatricyclo-[13.3.1.12,6]icosa-1(18),2(20),3,5,15(19), 16-hexaene-8-carboxylic acid], the MIC was determined as 2 µM (≈ 2.03 µg/mL) in experiment [1] (setting [5]); 3 µM (≈ 3.05 µg/mL) in experiment [2] (setting [6]); 16 µM (≈ 16.2 µg/mL) in experiment [3] (setting [7]); 16 µM (≈ 16.2 µg/mL) in experiment [4] (setting [8]); 16 µM (≈ 16.2 µg/mL) in experiment [4] (setting [9]).
Consider `Cc1nc(-c2ccc(C3(C)CC3)cc2)nc(N)c1C(=O)N[C@@H](CCN)C(=O)N(C)[C@@H]1C(=O)N[C@@H](C)C(=O)N[C@H](C(=O)O)Cc2ccc(OC[C@H](O)CN)c(c2)-c2cc1cc(OC[C@H](O)CN)c2O` [Example 21], for which the MIC in experiment [1] (setting [5]) was 0.38 µM (≈ 0.358 µg/mL); in experiment [2] (setting [6]), 0.25 µM (≈ 0.235 µg/mL); in experiment [3] (setting [7]) it was 48 µM (≈ 45.2 µg/mL); in experiment [4] (setting [8]), 16 µM (≈ 15.1 µg/mL); in experiment [4] (setting [9]) it was 16 µM (≈ 15.1 µg/mL).
Consider `C[C@@H]1NC(=O)[C@@H](N(C)C(=O)[C@H](CNS(N)(=O)=O)NC(=O)c2cnn(-c3ccc(OC4CCCCC4)cc3)c(=O)c2)c2cc(OC[C@H](O)CN)c(O)c(c2)-c2cc(ccc2OC[C@H](O)CN)C[C@@H](C(=O)O)NC1=O` [Example 9, (8S,11S,14S)-18-hydroxy-11-methyl-14-[methyl-[(2S)-2-[[1-[4-(cyclohexoxy)-phenyl]-6-oxo-pyridazine-4-carbonyl]amino]-3-(sulfamoylamino)-propanoyl]amino]-10,13-dioxo-3,17-bis[(2R)-3-amino-2-hydroxy-propoxy]-9,12-diazatricyclo-[13.3.1.12,6]icosa-1(18),2(20),3,5,15(19), 16-hexaene-8-carboxylic acid], for which the MIC in experiment [1] (setting [5]) stood at 6 µM (≈ 6.22 µg/mL); in experiment [2] (setting [6]) it was 1.5 µM (≈ 1.56 µg/mL); in experiment [3] (setting [7]), 32 µM (≈ 33.2 µg/mL); in experiment [4] (setting [8]), 32 µM (≈ 33.2 µg/mL); in experiment [4] (setting [9]) it was 32 µM (≈ 33.2 µg/mL).
Consider `Cc1nc(-c2ccc(OCCC(C)(C)C)cc2)nc(N)c1C(=O)N[C@@H](CNS(N)(=O)=O)C(=O)N(C)[C@@H]1C(=O)N[C@@H](C)C(=O)N[C@H](C(=O)O)Cc2ccc(OC[C@H](O)CN)c(c2)-c2cc1cc(OC[C@H](O)CN)c2O` [Example 3, (8S,11S,14S)-18-hydroxy-11-methyl-14-[methyl-[(2S)-2-[[4-amino-2-[4-(3,3-dimethylbutoxy)-phenyl]-6-methyl-pyrimidine-5-carbonyl]amino]-3-(sulfamoylamino)-propanoyl]amino]-10,13-dioxo-3,17-bis[(2R)-3-amino-2-hydroxy-propoxy]-9,12-diazatricyclo-[13.3.1.12,6]icosa-1(18),2(20),3,5,15(19), 16-hexaene-8-carboxylic acid], for which the MIC in experiment [1] (setting [5]) was found to be 0.5 µM (≈ 0.526 µg/mL); in experiment [2] (setting [6]), 0.5 µM (≈ 0.526 µg/mL); in experiment [3] (setting [7]) it was 4 µM (≈ 4.21 µg/mL); in experiment [4] (setting [8]), 12 µM (≈ 12.6 µg/mL); in experiment [4] (setting [9]), 12 µM (≈ 12.6 µg/mL).
As for `Cc1nc(-c2ccc(C(C)(C)C)c(F)c2O)nc(N)c1C(=O)N[C@@H](CNS(N)(=O)=O)C(=O)N(C)[C@@H]1C(=O)N[C@@H](C)C(=O)N[C@H](C(=O)O)Cc2ccc(OC[C@H](O)CN)c(c2)-c2cc1cc(OC[C@H](O)CN)c2O` [Example 67, (8S,11S,14S)-18-hydroxy-11-methyl-14-[methyl-[(2S)-2-[[4-amino-2-(4-tert-butyl-3-fluoro-2-hydroxy-phenyl)-6-methyl-pyrimidine-5-carbonyl]amino]-3-(sulfamoylamino)-propanoyl]amino]-10,13-dioxo-3,17-bis[(2R)-3-amino-2-hydroxy-propoxy]-9,12-diazatricyclo-[13.3.1.12,6]icosa-1(18),2(20),3,5,15(19), 16-hexaene-8-carboxylic acid], the MIC in experiment [1] (setting [5]) turned out to be 0.5 µM (≈ 0.521 µg/mL); in experiment [2] (setting [6]), 1 µM (≈ 1.04 µg/mL); in experiment [3] (setting [7]), 4 µM (≈ 4.17 µg/mL); in experiment [4] (setting [8]), 16 µM (≈ 16.7 µg/mL); in experiment [4] (setting [9]), 16 µM (≈ 16.7 µg/mL).
For the compound `Cc1nc(-c2ccc(OCCC(C)(C)C)nc2)nc(N)c1C(=O)N[C@@H](CNS(N)(=O)=O)C(=O)N(C)[C@@H]1C(=O)N[C@@H](C)C(=O)N[C@H](C(=O)O)Cc2ccc(OC[C@H](O)CN)c(c2)-c2cc1cc(OC[C@H](O)CN)c2O` [Example 54, (8S,11S,14S)-14-[[(2S)-2-[[4-amino-2-[6-(3,3-dimethyl-butoxy)-3-pyridyl]-6-methyl-pyrimidine-5-carbonyl]amino]-3-(sulfamoylamino)-propanoyl]-methyl-amino]-3,17-bis[(2R)-3-amino-2-hydroxy-propoxy]-18-hydroxy-11-methyl-10,13-dioxo-9,12-diazatri-cyclo[13.3.1.12,6]icosa-1(18),2(20),3,5,15(19), 16-hexaene-8-carboxylic acid], the MIC worked out at 0.38 µM (≈ 0.4 µg/mL) in experiment [1] (setting [5]); 0.5 µM (≈ 0.527 µg/mL) in experiment [2] (setting [6]); 4 µM (≈ 4.21 µg/mL) in experiment [3] (setting [7]); 8 µM (≈ 8.43 µg/mL) in experiment [4] (setting [8]); 8 µM (≈ 8.43 µg/mL) in experiment [4] (setting [9]).
As to `Cc1nc(-c2ccc(C(C)(C)C)cc2)nc(C)c1C(=O)N[C@@H](CCN)C(=O)N(C)[C@@H]1C(=O)N[C@@H](C)C(=O)N[C@H](C(=O)O)Cc2ccc(OCCN)c(c2)-c2cc1cc1[nH]c(=O)oc21` (racemic) [Example 649], the MIC in experiment [1] (setting [10]) is 1 µM (≈ 0.864 µg/mL); in experiment [2] (setting [11]), 2 µM (≈ 1.73 µg/mL); in experiment [3] (setting [12]), 64 µM (≈ 55.3 µg/mL); in experiment [4] (setting [13]), 64 µM (≈ 55.3 µg/mL).
Regarding `C[C@@H]1NC(=O)[C@@H](N(C)C(=O)[C@H](CCN)NC(=O)c2cnn(-c3ccc(C(C)(C)C)cc3)c(=O)c2)c2cc(OC[C@H](O)CN)c(O)c(c2)-c2cc(ccc2OC[C@H](O)CN)C[C@@H](C(=O)O)NC1=O` [Example 17, (8S,11S,14S)-18-hydroxy-11-methyl-14-[methyl-[(2S)-4-amino-2-[[1-(4-tert-butylphenyl)-6-oxo-pyridazine-4-carbonyl]amino]-butanoyl]amino]-10,13-dioxo-3,17-bis[(2R)-3-amino-2-hydroxy-propoxy]-9,12-diazatricyclo-[13.3.1.12,6]icosa-1(18),2(20),3,5,15(19), 16-hexaene-8-carboxylic acid], the MIC was 1 µM (≈ 0.93 µg/mL) in experiment [1] (ATCC25922, 22 h); 1 µM (≈ 0.93 µg/mL) in experiment [2] (ATCC700603, 22 h, read-out: K pneumoniae 700603 Serum MIC); 64 µM (≈ 59.5 µg/mL) in experiment [3] (PA01, 22 h); 16 µM (≈ 14.9 µg/mL) in experiment [4] (ATCC17978, 22 h, read-out: A. baumanii 17978 Serum MIC); 16 µM (≈ 14.9 µg/mL) in experiment [4] (ATCC17978, 22 h, read-out: Acinetobacter baumanii 17978 Serum MIC).
